From US20210221848A1, “POLYMYXIN DERIVATIVES AND THEIR USE IN COMBINATION THERAPY TOGETHER WITH DIFFERENT ANTIBIOTICS” (priority 2014, published 2021) come the findings set out here.

Setting [1] is: absence of a second agent, Table 6B.

≈ marks a conversion by molar mass, not a printed value. Where two headings read alike, the source gives them in different places. Bridge positions count the residues as written; N and C are the ends. Square brackets hold non-standard residues; d marks the D form. Peptide text beside a SMILES is read from it. * marks the point of attachment. ξ: configuration not given here. Thr(3ξ) = CC(O)[C@H](N)C(=O)O; X9 = CC(C)[C@H](N)CCC(=O)*; Octanoyl = CCCCCCCC(=O)*; Dab = NCC[C@H](N)C(=O)O; X15 = O=C(C1CCNC1)*; GABA = NCCCC(=O)O; βAla = NCCC(=O)O Bounds are passed on as bounds.

Regarding “1-(2- trifluoromethylben- zyl)piperazine- 2-carbonyl Polymyxin B nonapeptide [Example D55]”, in the assay on K. pneumoniae (sole activity, Table 6C), the “MIC, K. pneumoniae ATCC 4352” value came to 0.25 micrograms/mL and the “MIC, K. pneumoniae ATCC BAA-2146” value is listed as 0.5 micrograms/mL. In addition, in the assay on A. baumannii (sole activity, Table 6C), the “MIC, A. baumannii ATCC BAA-747” value was found to be 0.25 micrograms/mL and the “MIC, A. baumannii NCTC 13424” value is listed as 0.5 micrograms/mL. Further, in the assay on E. coli (sole activity, Table 6C), the “MIC, E. coli ATCC 25922” value is given as 0.25 micrograms/mL and the “MIC, E. coli NCTC 13441” value stood at 0.25 micrograms/mL. In addition, in the assay with P. aeruginosa (sole activity, Table 6C), the “MIC, P. aeruginosa ATCC 27853” value is listed as 0.5 micrograms/mL and the “MIC, P. aeruginosa CCUG 59347” value is 1 micrograms/mL.
For the compound “(cis-6-octylpiperidine)- 3-carbonyl polymyxin B nonapeptide [Example D16]”, in the assay on K. pneumoniae (setting [1]), the “MIC, K. pneumoniae ATCC 4352” value is listed as more than 8 micrograms/mL and the “MIC, K. pneumoniae ATCC BAA-2146” value was more than 8 micrograms/mL. In addition, in the assay on A. baumannii (setting [1]), the “MIC, A. baumannii ATCC BAA-747” value was more than 8 micrograms/mL and the “MIC, A. baumannii NCTC 13424” value is recorded as more than 8 micrograms/mL. Moreover, in the assay on E. coli (setting [1]), the “MIC, E. coli ATCC 25922” value is reported as more than 8 micrograms/mL and the “MIC, E. coli NCTC 13441” value is on record as more than 8 micrograms/mL. For the same compound, in the assay on P. aeruginosa (setting [1]), the “MIC, P. aeruginosa ATCC 27853” value was found to be 8 micrograms/mL and the “MIC, P. aeruginosa CCUG 59347” value is 1 micrograms/mL.
Take “(S)-1-((6-oxo-1- phenyl-1,6- dihydropyridin-3- yl)methyl)piperazine- 2-carbonyl Polymyxin B nonapeptide [Example D60]”: in the assay with K. pneumoniae (sole activity, Table 6C), the “MIC, K. pneumoniae ATCC 4352” value came to 0.25 micrograms/mL and the “MIC, K. pneumoniae ATCC BAA-2146” value is given as 0.5 micrograms/mL. Also, in the assay with A. baumannii (sole activity, Table 6C), the “MIC, A. baumannii ATCC BAA-747” value is on record as 4 micrograms/mL and the “MIC, A. baumannii NCTC 13424” value is given as 2 micrograms/mL. In addition, in the assay with E. coli (sole activity, Table 6C), the “MIC, E. coli ATCC 25922” value is 0.25 micrograms/mL and the “MIC, E. coli NCTC 13441” value was found to be 0.5 micrograms/mL. In the assay with P. aeruginosa (sole activity, Table 6C), the “MIC, P. aeruginosa ATCC 27853” value is listed as 1 micrograms/mL and the “MIC, P. aeruginosa CCUG 59347” value is recorded as 2 micrograms/mL.
As to “4-Amino-2-benzyl butanoylpolymyxin B nonapeptide [Example D3]”, in the assay on K. pneumoniae (setting [1]), the “MIC, K. pneumoniae ATCC 4352” value was 1 micrograms/mL and the “MIC, K. pneumoniae ATCC BAA-2146” value is 2 micrograms/mL. Further, in the assay on A. baumannii (setting [1]), the “MIC, A. baumannii ATCC BAA-747” value is recorded as more than 8 micrograms/mL and the “MIC, A. baumannii NCTC 13424” value is more than 8 micrograms/mL. In the assay on E. coli (setting [1]), the “MIC, E. coli ATCC 25922” value was 0.25 micrograms/mL and the “MIC, E. coli NCTC 13441” value is recorded as 0.5 micrograms/mL. Besides, in the assay on P. aeruginosa (setting [1]), the “MIC, P. aeruginosa ATCC 27853” value is listed as 0.5 micrograms/mL and the “MIC, P. aeruginosa CCUG 59347” value is on record as 1 micrograms/mL.
Turning to “trans-4- Phenylpyrrolidine-3- carbonyl polymyxin B nonapeptide [Example D1]”, in the assay on K. pneumoniae (setting [1]), the “MIC, K. pneumoniae ATCC 4352” value came out at 2 micrograms/mL and the “MIC, K. pneumoniae ATCC BAA-2146” value is given as 1 micrograms/mL. In addition, in the assay with A. baumannii (setting [1]), the “MIC, A. baumannii ATCC BAA-747” value is given as 4 micrograms/mL and the “MIC, A. baumannii NCTC 13424” value was determined as 4 micrograms/mL. Besides, in the assay with E. coli (setting [1]), the “MIC, E. coli ATCC 25922” value came out at 4 micrograms/mL and the “MIC, E. coli NCTC 13441” value stood at 4 micrograms/mL. For the same compound, in the assay with P. aeruginosa (setting [1]), the “MIC, P. aeruginosa ATCC 27853” value is listed as 0.5 micrograms/mL and the “MIC, P. aeruginosa CCUG 59347” value was determined as 2 micrograms/mL.
With “(trans-5-(2- methylpropyl) piperidine)-3-carbonyl polymyxin B nonapeptide [Example D49]”, in the assay on K. pneumoniae (setting [1]), the “MIC, K. pneumoniae ATCC 4352” value amounted to 4 micrograms/mL and the “MIC, K. pneumoniae ATCC BAA-2146” value stood at 8 micrograms/mL. In the assay on A. baumannii (setting [1]), the “MIC, A. baumannii ATCC BAA-747” value is more than 8 micrograms/mL and the “MIC, A. baumannii NCTC 13424” value was more than 8 micrograms/mL. Further, in the assay on E. coli (setting [1]), the “MIC, E. coli ATCC 25922” value is 8 micrograms/mL and the “MIC, E. coli NCTC 13441” value was 8 micrograms/mL. In addition, in the assay with P. aeruginosa (setting [1]), the “MIC, P. aeruginosa ATCC 27853” value is on record as 2 micrograms/mL and the “MIC, P. aeruginosa CCUG 59347” value worked out at 4 micrograms/mL.
“(cis-5-(2-methylpropyl) piperidine)-3-carbonyl polymyxin B nonapeptide [Example D48]”: in the assay with K. pneumoniae (setting [1]), the “MIC, K. pneumoniae ATCC 4352” value is given as 0.125 micrograms/mL and the “MIC, K. pneumoniae ATCC BAA-2146” value came to 0.25 micrograms/mL. For the same compound, in the assay with A. baumannii (setting [1]), the “MIC, A. baumannii ATCC BAA-747” value was found to be 0.5 micrograms/mL and the “MIC, A. baumannii NCTC 13424” value worked out at 0.5 micrograms/mL. Also, in the assay on E. coli (setting [1]), the “MIC, E. coli ATCC 25922” value amounted to 0.125 micrograms/mL and the “MIC, E. coli NCTC 13441” value was 0.125 micrograms/mL. In addition, in the assay with P. aeruginosa (setting [1]), the “MIC, P. aeruginosa ATCC 27853” value stood at 0.25 micrograms/mL and the “MIC, P. aeruginosa CCUG 59347” value came to 1 micrograms/mL.
As to “(cis-5- cyclohexylpiperidine)- 3-carbonyl L-Thr-L- Dap-polymyxin B heptapeptide [Example D43]”, in the assay on K. pneumoniae (setting [1]), the “MIC, K. pneumoniae ATCC 4352” value is listed as 2 micrograms/mL and the “MIC, K. pneumoniae ATCC BAA-2146” value is 4 micrograms/mL. In the assay on A. baumannii (setting [1]), the “MIC, A. baumannii ATCC BAA-747” value is 4 micrograms/mL and the “MIC, A. baumannii NCTC 13424” value was found to be 4 micrograms/mL. In the assay on E. coli (setting [1]), the “MIC, E. coli ATCC 25922” value is on record as 2 micrograms/mL and the “MIC, E. coli NCTC 13441” value turned out to be 4 micrograms/mL. In the assay on P. aeruginosa (setting [1]), the “MIC, P. aeruginosa ATCC 27853” value was 1 micrograms/mL and the “MIC, P. aeruginosa CCUG 59347” value came to 2 micrograms/mL.
As to “2-aminomethyl-3- naphthalen-2-yl- propanoyl polymyxin B nonapeptide [Example D41]”, the “MIC, K. pneumoniae ATCC 4352” value against K. pneumoniae (setting [1]) came out at 2 micrograms/mL. In addition, in the assay with A. baumannii (setting [1]), the “MIC, A. baumannii ATCC BAA-747” value is recorded as 2 micrograms/mL and the “MIC, A. baumannii NCTC 13424” value is recorded as 1 micrograms/mL. For the same compound, in the assay with E. coli (setting [1]), the “MIC, E. coli ATCC 25922” value is on record as 1 micrograms/mL and the “MIC, E. coli NCTC 13441” value is reported as 1 micrograms/mL. Moreover, in the assay with P. aeruginosa (setting [1]), the “MIC, P. aeruginosa ATCC 27853” value is recorded as 0.5 micrograms/mL and the “MIC, P. aeruginosa CCUG 59347” value was 1 micrograms/mL.
As a reminder, the MIC is the lowest concentration found to suppress growth. On to `CCCCCCCC(=O)N[C@@H](CCN)C(=O)N[C@H](C(=O)N[C@@H](CCN)C(=O)N[C@H]1CCNC(=O)[C@H]([C@@H](C)O)NC(=O)[C@H](CCN)NC(=O)[C@H](CCN)NC(=O)[C@H](CC(C)C)NC(=O)[C@@H](Cc2ccccc2)NC(=O)[C@H](CCN)NC1=O)C(C)O` (some centres unmarked) [CC4, Octanoyl polymyxin B decapeptide, reference compound] (Octanoyl-[Dab][Thr(3ξ)][Dab][Dab][Dab][dF]L[Dab][Dab]T; lactam 4-C), for which, in the assay with A. baumannii, the MIC is 1 µg/mL (≈ 0.841 µM).
With `CC(C)C[C@@H]1NC(=O)[C@@H](Cc2ccccc2)NC(=O)[C@H](CCN)NC(=O)[C@@H](NC(=O)[C@H](CCN)NC(=O)[C@@H](NC(=O)C2CCNC2)[C@@H](C)O)CCNC(=O)[C@H]([C@@H](C)O)NC(=O)[C@H](CCN)NC(=O)[C@H](CCN)NC1=O` (some centres unmarked) [Example B8, reference compound] (X15-T[Dab][Dab][Dab][dF]L[Dab][Dab]T; lactam 3-C), the MIC against E. coli was 4 µg/mL (≈ 3.77 µM).
For the compound `CCCCCCCC(=O)N[C@H](C(=O)N[C@@H](CCN)C(=O)N[C@H]1CCNC(=O)[C@H]([C@@H](C)O)NC(=O)[C@H](CCN)NC(=O)[C@H](CCN)NC(=O)[C@H](CC(C)C)NC(=O)[C@@H](Cc2ccccc2)NC(=O)[C@H](CCN)NC1=O)[C@@H](C)O` [CC6, Octanoyl polymyxin B nonapeptide, reference compound] (Octanoyl-T[Dab][Dab][Dab][dF]L[Dab][Dab]T; lactam 3-C), the minimal inhibitory concentration (MIC) came to 4 µg/mL (≈ 3.67 µM) with A. baumannii and 0.5 µg/mL (≈ 0.459 µM) in the assay with E. coli.
Turning to `CCCCCCCC(=O)NCC(=O)N[C@H](C(=O)N[C@@H](CCN)C(=O)N[C@H]1CCNC(=O)[C@H]([C@@H](C)O)NC(=O)[C@H](CCN)NC(=O)[C@H](CCN)NC(=O)[C@H](CC(C)C)NC(=O)[C@@H](Cc2ccccc2)NC(=O)[C@H](CCN)NC1=O)C(C)O` (some centres unmarked) [CC5, Octanoyl-Gly- Polymyxin B nonapeptide, reference compound] (Octanoyl-G[Thr(3ξ)][Dab][Dab][Dab][dF]L[Dab][Dab]T; lactam 4-C), the MIC in the assay with K. pneumoniae is 8 µg/mL (≈ 6.98 µM); with A. baumannii, more than 8 µg/mL; in the assay with E. coli, 8 µg/mL (≈ 6.98 µM).
For the compound `CC(C)C[C@@H]1NC(=O)[C@@H](Cc2ccccc2)NC(=O)[C@H](CCN)NC(=O)[C@@H](NC(=O)[C@H](CCN)NC(=O)[C@@H](NC(=O)CCCN)[C@@H](C)O)CCNC(=O)[C@H]([C@@H](C)O)NC(=O)[C@H](CCN)NC(=O)[C@H](CCN)NC1=O` [Example B5, reference compound] (H-[GABA]T[Dab][Dab][Dab][dF]L[Dab][Dab]T; lactam 4-C), in the assay with A. baumannii, the minimal inhibitory concentration (MIC) was determined as 4 µg/mL (≈ 3.82 µM).
The same measure, in the same setting: for `CC(C)C[C@@H]1NC(=O)[C@@H](Cc2ccccc2)NC(=O)[C@H](CCN)NC(=O)[C@@H](NC(=O)[C@H](CCN)NC(=O)[C@@H](NC(=O)CCN)[C@@H](C)O)CCNC(=O)[C@H]([C@@H](C)O)NC(=O)[C@H](CCN)NC(=O)[C@H](CCN)NC1=O` [Example B7, reference compound] (H-[βAla]T[Dab][Dab][Dab][dF]L[Dab][Dab]T; lactam 4-C) the value was more than 8 µg/mL.
In the case of `CC(C)C[C@@H]1NC(=O)[C@@H](Cc2ccccc2)NC(=O)[C@H](CCN)NC(=O)[C@@H](NC(=O)[C@H](CCN)NC(=O)[C@@H](NC(=O)CC[C@@H](N)C(C)C)[C@@H](C)O)CCNC(=O)[C@H]([C@@H](C)O)NC(=O)[C@H](CCN)NC(=O)[C@H](CCN)NC1=O` [Example B6, reference compound] (X9-T[Dab][Dab][Dab][dF]L[Dab][Dab]T; lactam 3-C), the MIC in the assay on A. baumannii was more than 8 µg/mL; against E. coli, 8 µg/mL (≈ 7.34 µM); against P. aeruginosa, 4 µg/mL (≈ 3.67 µM).
